What was measured:
[1] = target: T1, recombinant human transglutaminase 2 (Homo sapiens, UniProt P21980); assay: Transglutaminase assay (dansylcadaverine incorporation into dimethylcasein, DCC-assay); type: biochemical; conditions: recombinant human TG2 10 nM, dansylcadaverine/dimethylcasein, 37° C.
T1 construct: purchased Zedira T022
T1 sequence (P21980 1-687): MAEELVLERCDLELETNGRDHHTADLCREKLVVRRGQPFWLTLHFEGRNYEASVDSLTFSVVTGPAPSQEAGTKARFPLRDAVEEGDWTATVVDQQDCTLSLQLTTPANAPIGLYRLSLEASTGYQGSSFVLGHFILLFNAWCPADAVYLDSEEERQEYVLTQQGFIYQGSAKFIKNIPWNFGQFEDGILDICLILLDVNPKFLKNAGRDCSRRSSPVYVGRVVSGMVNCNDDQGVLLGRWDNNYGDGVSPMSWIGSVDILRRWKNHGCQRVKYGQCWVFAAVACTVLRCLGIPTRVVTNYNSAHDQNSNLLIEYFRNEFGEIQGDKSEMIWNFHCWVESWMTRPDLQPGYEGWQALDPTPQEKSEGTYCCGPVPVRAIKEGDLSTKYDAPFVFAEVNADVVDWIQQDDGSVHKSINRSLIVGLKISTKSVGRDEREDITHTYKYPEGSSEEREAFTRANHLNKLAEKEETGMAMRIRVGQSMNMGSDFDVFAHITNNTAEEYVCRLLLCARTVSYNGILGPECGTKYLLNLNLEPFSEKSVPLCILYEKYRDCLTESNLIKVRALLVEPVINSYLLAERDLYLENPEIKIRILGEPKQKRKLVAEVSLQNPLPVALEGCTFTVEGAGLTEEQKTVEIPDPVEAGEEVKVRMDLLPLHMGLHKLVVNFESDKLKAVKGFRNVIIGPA
In short: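 IC50 derived from fluorescence slope between 20 and 30 min (λex 330 nm, λem 500 nm, 37 °C), expressed relative to a 2% DMSO control. Reaction: 10 nM recombinant human TG2, 4 μM dimethylcasein, 16.7 μM dansylcadaverine, 10 mM CaCl2 and glutathione, pH 8.0.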

[2] = Log D shake flask method (octanol / PBS pH 7.4, HPLC); type: physicochemical; conditions: octanol/phosphate-buffered saline (PBS); octanol / PBS pH 7.4, shake flask
Description: In order to classify the inventive compounds according to their lipophilicity, Log D values (distribution coefficient) were determined by means of the well-established shake flask method, measuring the partition of a compound between an octanol and phosphate-buffered saline (PBS, pH 7.4) by HPLC.

[3] = Caco-2 permeability assay (CacoReady kit); type: in vitro ADME; conditions: human
In short: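 Apparent permeability coefficients (Papp) were measured across Caco-2 cell barriers using a ready-to-use kit run per the supplier's protocol. Values serve as a predictor of oral/intestinal bioavailability.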

| Structure (SMILES) | IC50 [1] | logD [2] | Papp [3] |
| --- | --- | --- | --- |
| COC(=O)/C=C/CC[C@H](NC(=O)c1snnc1C1CC1)C(=O)Nc1cccn(CC(=O)NC23CC(C2)C3)c1=O [III-172, (S,E)-methyl 7-(1-(2-(bicyclo[1.1.1]pentan-1-ylamino)-2-oxoethyl)-2-oxo-1,2-dihydropyridin-3-ylamino)-6-(4-cyclopropyl-1,2,3-thiadiazole-5-carboxamido)-7-oxohept-2-enoate] | 25 to 250 nM | < 1 | < 1 ×10⁻⁶ cm/s |
| COC(=O)/C=C/CC[C@H](NC(=O)c1snnc1C=O)C(=O)Nc1cccn(CC(=O)NC2(C(=O)O)C3CC4CC2CC(C(F)(F)F)(C4)C3)c1=O (stereo partly drawn) [III-174, (S,E)-methyl 6-(4-formyl-1,2,3-thiadiazole-5-carboxamido)-7-(1-(2-(2-carboxy-2-amino-5-(trifluoromethyl)adamantane)-2-oxoethyl)-2-oxo-1,2-dihydropyridin-3-ylamino)-7-oxohept-2-enoate] | 250 to 1500 nM | 1 to 3 | < 1 ×10⁻⁶ cm/s |
| CCc1c(C(=O)N[C@@H](CC/C=C/C(=O)NC2CCCC2)C(=O)Nc2cccn(CC(=O)NC34CC(C3)C4)c2=O)oc2ccccc12 [III-147, (S,E)-N7-(1-(2-(bicyclo[1.1.1]pentan-1-ylamino)-2-oxoethyl)-2-oxo-1,2-dihydropyridin-3-yl)-N1-cyclopentyl-6-(3-ethylbenzofuran-2-carboxamido)hept-2-enediamide] | 25 to 250 nM | 1 to 3 | 1 to 10 ×10⁻⁶ cm/s |
| COC(=O)/C=C/CC[C@H](NC(=O)c1cc2c(Br)cccc2o1)C(=O)Nc1cccn(CC(=O)NC2C3CC4CC(C3)CC2C4)c1=O (stereo partly drawn) [III-4, (S,E)-methyl 6-(4-bromobenzofuran-2-carboxamido)-7-(1-(2-(2-adamantylamino)-2-oxoethyl)-2-oxo-1,2-dihydropyridin-3-ylamino)-7-oxohept-2-enoate] | < 25 nM | 3 to 5 | 1 to 10 ×10⁻⁶ cm/s |
| COC(=O)/C=C/CC[C@H](NC(=O)c1oc2ccccc2c1C)C(=O)Nc1cccn(CC(=O)NC23CC4CC(CC(C4)C2)C3)c1=O [III-45, (S,E)-methyl 7-(1-(2-(1-adamantylamino)-2-oxoethyl)-2-oxo-1,2-dihydropyridin-3-ylamino)-6-(3-methylbenzofuran-2-carboxamido)-7-oxohept-2-enoate] | 25 to 250 nM | 3 to 5 | 1 to 10 ×10⁻⁶ cm/s |
| COC(=O)/C=C/CC[C@H](NC(=O)c1cnc(NC(C)=O)s1)C(=O)Nc1cccn(CC(=O)NC23CC(C2)C3)c1=O [III-162, (S,E)-methyl 6-(2-acetamidothiazole-5-carboxamido)-7-(1-(2-(bicyclo[1.1.1]pentan-1-ylamino)-2-oxoethyl)-2-oxo-1,2-dihydropyridin-3-ylamino)-7-oxohept-2-enoate] | 250 to 1500 nM | < 1 | < 1 ×10⁻⁶ cm/s |
| Cc1c(C(=O)N[C@@H](CC/C=C/S(C)(=O)=O)C(=O)Nc2cccn(CC(=O)NC3C4CC5CC(C4)CC3C5)c2=O)oc2ccccc12 (stereo partly drawn) [III-90, (S,E)-N-(1-(1-(2-(2-adamantylamino)-2-oxoethyl)-2-oxo-1,2-dihydropyridin-3-ylamino)-6-(methylsulfonyl)-1-oxohex-5-en-2-yl)-3-methylbenzofuran-2-carboxamide] | < 25 nM | 1 to 3 | 1 to 10 ×10⁻⁶ cm/s |
| COC(=O)/C=C/CC[C@H](NC(=O)c1coc(S(N)(=O)=O)c1)C(=O)Nc1cccn(CC(=O)NC2C3CC4CC2CC(NC(C)=O)(C4)C3)c1=O (stereo partly drawn) [III-164, (S,E)-methyl 7-(1-(2-(1-acetylamino-4-aminoadamantane)-2-oxoethyl)-2-oxo-1,2-dihydropyridin-3-ylamino)-7-oxo-6-(5-sulfamoylfuran-3-carboxamido)hept-2-enoate] | 250 to 1500 nM | < 1 | < 1 ×10⁻⁶ cm/s |
| CCCCCNC(=O)/C=C/CC[C@H](NC(=O)c1nc2ccccc2s1)C(=O)Nc1cccn(CC(=O)NC23CC(C2)C3)c1=O [III-142, (S,E)-6-(benzo[d]thiazole-2-carboxamido)-N7-(1-(2-(bicyclo[1.1.1]pentan-1-ylamino)-2-oxoethyl)-2-oxo-1,2-dihydropyridin-3-yl)-N1-pentylheptyl-2-enediamide] | 25 to 250 nM | 1 to 3 | 1 to 10 ×10⁻⁶ cm/s |
| COC(=O)/C=C/CC[C@H](NC(=O)c1ccnn1C)C(=O)Nc1cccn(CC(=O)NC23CC4CC(C)(CC(C)(C4)C2)C3)c1=O [III-113, (S,E)-methyl 7-(1-(2-(3,5-dimethyladamantane-1-amino)-2-oxoethyl)-2-oxo-1,2-dihydropyridin-3-ylamino)-6-(1-methyl-1H-pyrazole-5-carboxamido)-7-oxohept-2-enoate] | < 25 nM | 1 to 3 | < 1 ×10⁻⁶ cm/s |
| COC(=O)/C=C/CC[C@H](NC(=O)c1oc2ccccc2c1C)C(=O)Nc1cccn(CC(=O)NC23CCCC4CC(CCC42)C3)c1=O (stereo partly drawn) [III-72, (S,E)-methyl 7-(1-(2-(4-homoisotwistane-3-amino)-2-oxoethyl)-2-oxo-1,2-dihydropyridin-3-ylamino)-6-(3-methylbenzofuran-2-carboxamido)-7-oxohept-2-enoate] | 25 to 250 nM | 3 to 5 | 1 to 10 ×10⁻⁶ cm/s |
| COC(=O)/C=C/CC[C@H](NC(=O)c1oc2ccccc2c1C)C(=O)Nc1cccn(CC(=O)NC23CC4CC(C)(CC(C)(C4)C2)C3)c1=O [III-46, (S,E)-methyl 7-(1-(2-(3,5-dimethyladamantan-1-amino)-2-oxoethyl)-2-oxo-1,2-dihydropyridin-3-ylamino)-6-(3-methylbenzofuran-2-carboxamido)-7-oxohept-2-enoate] | < 25 nM | 3 to 5 | 1 to 10 ×10⁻⁶ cm/s |
| COC(=O)/C=C/CC[C@H](NC(=O)c1snnc1C)C(=O)Nc1cccn(CC(=O)N[C@@H]2C[C@H]3CC[C@@H]2C3)c1=O [III-110, (S,E)-methyl 7-(1-(2-((1R,2R,4S)-bicyclo[2.2.1]heptan-2-ylamino)-2-oxoethyl)-2-oxo-1,2-dihydropyridin-3-ylamino)-6-(4-methyl-1,2,3-thiadiazole-5-carboxamido)-7-oxohept-2-enoate] | < 25 nM | 1 to 3 | < 1 ×10⁻⁶ cm/s |
| COC(=O)/C=C/CC[C@H](NC(=O)c1oc2ccccc2c1C)C(=O)Nc1cccn(CC(=O)N[C@]23C[C@H]4C5CC6CC4[C@@H](C2)[C@@H](C6)[C@@H]5C3)c1=O (stereo in doubt) [III-74, (S,E)-methyl 7-(1-(2-(diamantane-4-amino)-2-oxoethyl)-2-oxo-1,2-dihydropyridin-3-ylamino)-6-(3-methylbenzofuran-2-carboxamido)-7-oxohept-2-enoate] | < 25 nM | 3 to 5 | 1 to 10 ×10⁻⁶ cm/s |
| COC(=O)/C=C/CC[C@H](NC(=O)c1oc2ccccc2c1C)C(=O)Nc1cccn(CC(=O)NC23CC4CC(C2)CC(C(F)(F)F)(C4)C3)c1=O [III-49, (S,E)-methyl 7-(1-(2-(3-trifluoromethyladamantan-1-amino)-2-oxoethyl)-2-oxo-1,2-dihydropyridin-3-ylamino)-6-(3-methylbenzofuran-2-carboxamido)-7-oxohept-2-enoate] | 25 to 250 nM | 3 to 5 | 1 to 10 ×10⁻⁶ cm/s |
| COC(=O)/C=C/CC[C@H](NC(=O)c1ccnn1C)C(=O)Nc1cccn(CC(=O)N[C@@H]2C[C@@H]3CC[C@H]2C3)c1=O [III-117, (S,E)-methyl 7-(1-(2-((1S,2R,4R)-bicyclo[2.2.1]heptan-2-ylamino)-2-oxoethyl)-2-oxo-1,2-dihydropyridin-3-ylamino)-6-(1-methyl-1H-pyrazole-5-carboxamido)-7-oxohept-2-enoate] | < 25 nM | 1 to 3 | < 1 ×10⁻⁶ cm/s |
| COC(=O)/C=C/CC[C@H](NC(=O)c1cncc(C(=O)O)c1)C(=O)Nc1cccn(CC(=O)NC2C3CC4CC(C3)CC2C4)c1=O (stereo partly drawn) [III-35, (S,E)-5-(1-(1-(2-(2-adamantylamino)-2-oxoethyl)-2-oxo-1,2-dihydropyridin-3-ylamino)-7-methoxy-1,7-dioxohept-5-en-2-ylcarbamoyl)nicotinic acid] | < 25 nM | 3 to 5 | < 1 ×10⁻⁶ cm/s |
| COC(=O)/C=C/CC[C@H](NC(=O)c1csnn1)C(=O)Nc1cccn(CC(=O)NC23CC(C2)C3)c1=O [III-169, (S,E)-methyl 7-(1-(2-(bicyclo[1.1.1]pentan-1-ylamino)-2-oxoethyl)-2-oxo-1,2-dihydropyridin-3-ylamino)-7-oxo-6-(1,2,3-thiadiazole-4-carboxamido)hept-2-enoate] | 25 to 250 nM | < 1 | < 1 ×10⁻⁶ cm/s |

Source: patent publication US20240317708A1, “INHIBITORS OF TRANSGLUTAMINASES” (ZEDIRA GMBH, priority 2021, published 2024)
